Measured values: the kinase profiling compilation of Christmann-Franck et al. (2016)

Legend:
Experiment in all cases: radiometric filter-binding kinase assay
[1] = molecular target: STK11 CAB39 STRADA (human) (UniProt Q9Y376+Q7RTN6+Q15831)
[2] = molecular target: EEF2K (human) (UniProt O00418)
[3] = molecular target: PAK6 (human) (UniProt Q9NQU5)
[4] = molecular target: YES1 (human) (UniProt P07947)
[5] = molecular target: MAPK10 (human) (UniProt P53779)
[6] = molecular target: PRKCZ (human) (UniProt Q05513)
[7] = molecular target: HIPK2 (human) (UniProt Q9H2X6)
[8] = molecular target: MARK4 (human) (UniProt Q96L34)
[9] = molecular target: IGF1R (human) (UniProt P08069)
[10] = molecular target: SRC (human) (UniProt P12931)
[11] = molecular target: HIPK1 (human) (UniProt Q86Z02)
[12] = molecular target: CHEK1 (human) (UniProt O14757)
[13] = molecular target: GSK3B (human) (UniProt P49841)
[14] = molecular target: SYK (human) (UniProt P43405)
[15] = molecular target: MAPK9 (human) (UniProt P45984)
[16] = test system: PAK2 (human), Q13177 [T402E]
[17] = molecular target: MELK (human) (UniProt Q14680)
[18] = molecular target: MAP3K9 (human) (UniProt P80192)
[19] = molecular target: TTK (human) (UniProt P33981)
[20] = molecular target: AURKB (human) (UniProt Q96GD4)
[21] = molecular target: CSNK1D (human) (UniProt P48730)
[22] = molecular target: FGFR1 (human) (UniProt P11362)
[23] = molecular target: PKN2 (human) (UniProt Q16513)
[24] = molecular target: MAPK13 (human) (UniProt O15264)
[25] = molecular target: MYLK (human) (UniProt Q15746)
[26] = molecular target: AURKA (human) (UniProt O14965)
[27] = molecular target: GCK (human) (UniProt Q12851)
[28] = molecular target: FLT1 (human) (UniProt P17948)
[29] = molecular target: MAPK1 (human) (UniProt P28482)
[30] = test system: AKT2 (human), P31751 [S474D]

Chain of MAPK1 (human) (P28482 whole entry, looked up): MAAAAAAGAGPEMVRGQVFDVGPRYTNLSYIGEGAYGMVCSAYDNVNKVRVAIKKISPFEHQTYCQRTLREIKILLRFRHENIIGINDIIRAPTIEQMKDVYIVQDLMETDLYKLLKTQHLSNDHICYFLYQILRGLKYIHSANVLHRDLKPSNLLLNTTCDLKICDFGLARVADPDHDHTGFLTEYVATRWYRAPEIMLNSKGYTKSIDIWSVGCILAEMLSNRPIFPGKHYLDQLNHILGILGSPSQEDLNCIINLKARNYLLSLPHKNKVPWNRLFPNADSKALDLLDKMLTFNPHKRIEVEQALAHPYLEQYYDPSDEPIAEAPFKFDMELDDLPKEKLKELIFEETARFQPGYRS
Chain of IGF1R (human) (P08069 whole entry, looked up): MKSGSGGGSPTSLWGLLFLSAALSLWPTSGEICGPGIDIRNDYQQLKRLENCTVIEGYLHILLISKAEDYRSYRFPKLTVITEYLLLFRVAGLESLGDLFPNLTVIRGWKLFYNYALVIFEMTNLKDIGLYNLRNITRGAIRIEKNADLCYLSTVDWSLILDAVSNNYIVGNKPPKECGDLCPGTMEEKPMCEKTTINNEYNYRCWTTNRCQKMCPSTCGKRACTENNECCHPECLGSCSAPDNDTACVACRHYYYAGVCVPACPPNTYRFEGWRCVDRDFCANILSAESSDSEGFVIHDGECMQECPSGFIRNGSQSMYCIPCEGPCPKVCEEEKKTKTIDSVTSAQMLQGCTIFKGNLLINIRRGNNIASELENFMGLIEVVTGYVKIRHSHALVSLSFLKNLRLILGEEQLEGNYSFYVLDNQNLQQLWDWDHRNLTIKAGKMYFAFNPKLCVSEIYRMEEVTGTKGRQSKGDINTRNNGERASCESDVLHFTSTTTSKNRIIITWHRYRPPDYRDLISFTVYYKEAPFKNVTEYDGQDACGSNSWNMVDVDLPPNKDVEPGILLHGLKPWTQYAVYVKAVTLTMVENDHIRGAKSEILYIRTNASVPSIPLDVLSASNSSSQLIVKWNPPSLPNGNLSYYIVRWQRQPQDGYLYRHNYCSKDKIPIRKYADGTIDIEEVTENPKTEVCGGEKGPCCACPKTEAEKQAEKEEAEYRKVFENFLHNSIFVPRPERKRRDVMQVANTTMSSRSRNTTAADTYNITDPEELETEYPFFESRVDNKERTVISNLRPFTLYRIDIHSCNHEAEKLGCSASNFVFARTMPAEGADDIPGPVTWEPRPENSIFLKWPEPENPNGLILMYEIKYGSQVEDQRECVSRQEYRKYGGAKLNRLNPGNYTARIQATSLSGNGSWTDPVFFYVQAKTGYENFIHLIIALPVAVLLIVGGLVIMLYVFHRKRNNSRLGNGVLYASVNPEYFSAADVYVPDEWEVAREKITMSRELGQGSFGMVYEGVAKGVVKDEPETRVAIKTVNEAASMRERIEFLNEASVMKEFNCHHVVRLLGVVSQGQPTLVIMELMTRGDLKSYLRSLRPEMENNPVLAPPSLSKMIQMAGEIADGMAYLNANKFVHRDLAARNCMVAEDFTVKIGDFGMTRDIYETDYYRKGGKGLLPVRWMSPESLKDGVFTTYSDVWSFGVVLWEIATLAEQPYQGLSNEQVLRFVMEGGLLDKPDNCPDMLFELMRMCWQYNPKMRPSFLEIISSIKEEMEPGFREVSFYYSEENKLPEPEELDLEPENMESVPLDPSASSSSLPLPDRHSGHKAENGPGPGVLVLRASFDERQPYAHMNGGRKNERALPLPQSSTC
Chain of GSK3B (human) (P49841 whole entry, looked up): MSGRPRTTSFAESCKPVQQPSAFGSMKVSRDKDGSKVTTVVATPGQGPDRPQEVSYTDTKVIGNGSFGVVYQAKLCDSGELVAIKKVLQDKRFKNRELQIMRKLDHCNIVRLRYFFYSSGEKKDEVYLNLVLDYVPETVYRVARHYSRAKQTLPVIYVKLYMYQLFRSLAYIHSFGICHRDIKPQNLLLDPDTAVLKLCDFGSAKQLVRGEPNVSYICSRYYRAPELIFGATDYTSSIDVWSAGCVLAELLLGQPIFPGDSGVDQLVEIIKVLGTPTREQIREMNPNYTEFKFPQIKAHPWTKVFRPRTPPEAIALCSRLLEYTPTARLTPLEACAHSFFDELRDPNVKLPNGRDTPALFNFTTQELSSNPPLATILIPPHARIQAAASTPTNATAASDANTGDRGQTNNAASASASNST
Chain of MAPK9 (human) (P45984 whole entry, looked up): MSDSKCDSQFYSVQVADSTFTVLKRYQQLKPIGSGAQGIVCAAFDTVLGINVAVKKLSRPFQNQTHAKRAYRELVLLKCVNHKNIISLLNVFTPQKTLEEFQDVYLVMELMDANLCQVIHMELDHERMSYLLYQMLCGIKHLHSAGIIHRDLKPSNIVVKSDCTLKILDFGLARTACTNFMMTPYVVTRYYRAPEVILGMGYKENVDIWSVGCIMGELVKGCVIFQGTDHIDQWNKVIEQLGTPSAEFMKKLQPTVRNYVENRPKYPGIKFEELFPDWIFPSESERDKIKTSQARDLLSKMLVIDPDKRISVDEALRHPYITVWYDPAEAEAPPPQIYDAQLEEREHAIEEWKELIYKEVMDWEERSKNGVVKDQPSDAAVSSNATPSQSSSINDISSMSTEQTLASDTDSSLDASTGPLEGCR
Chain of AURKA (human) (O14965 whole entry, looked up): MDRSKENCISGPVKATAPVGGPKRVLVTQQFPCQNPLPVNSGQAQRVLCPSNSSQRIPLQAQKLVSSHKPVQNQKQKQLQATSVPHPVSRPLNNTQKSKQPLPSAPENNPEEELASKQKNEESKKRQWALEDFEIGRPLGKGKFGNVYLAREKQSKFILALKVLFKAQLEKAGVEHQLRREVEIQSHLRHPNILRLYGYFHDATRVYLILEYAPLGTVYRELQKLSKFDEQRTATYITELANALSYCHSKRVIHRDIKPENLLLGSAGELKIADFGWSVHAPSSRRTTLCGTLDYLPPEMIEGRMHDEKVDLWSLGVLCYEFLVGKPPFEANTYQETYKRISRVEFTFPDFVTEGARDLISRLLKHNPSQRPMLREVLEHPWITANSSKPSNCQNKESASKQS
Chain of YES1 (human) (P07947 whole entry, looked up): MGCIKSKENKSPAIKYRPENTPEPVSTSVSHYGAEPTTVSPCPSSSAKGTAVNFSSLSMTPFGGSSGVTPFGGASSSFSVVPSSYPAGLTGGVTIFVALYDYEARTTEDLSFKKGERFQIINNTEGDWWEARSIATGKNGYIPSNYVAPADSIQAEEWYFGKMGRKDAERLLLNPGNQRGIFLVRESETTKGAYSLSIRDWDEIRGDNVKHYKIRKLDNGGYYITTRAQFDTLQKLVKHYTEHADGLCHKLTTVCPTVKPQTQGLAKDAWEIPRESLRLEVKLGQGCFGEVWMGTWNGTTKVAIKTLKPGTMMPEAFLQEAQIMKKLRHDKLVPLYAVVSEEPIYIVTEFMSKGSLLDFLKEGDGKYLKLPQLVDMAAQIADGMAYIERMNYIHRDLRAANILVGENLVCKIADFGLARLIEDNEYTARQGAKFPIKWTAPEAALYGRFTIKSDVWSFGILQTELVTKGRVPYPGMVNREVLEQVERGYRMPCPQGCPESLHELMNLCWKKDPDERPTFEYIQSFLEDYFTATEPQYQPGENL
Chain of MELK (human) (Q14680 whole entry, looked up): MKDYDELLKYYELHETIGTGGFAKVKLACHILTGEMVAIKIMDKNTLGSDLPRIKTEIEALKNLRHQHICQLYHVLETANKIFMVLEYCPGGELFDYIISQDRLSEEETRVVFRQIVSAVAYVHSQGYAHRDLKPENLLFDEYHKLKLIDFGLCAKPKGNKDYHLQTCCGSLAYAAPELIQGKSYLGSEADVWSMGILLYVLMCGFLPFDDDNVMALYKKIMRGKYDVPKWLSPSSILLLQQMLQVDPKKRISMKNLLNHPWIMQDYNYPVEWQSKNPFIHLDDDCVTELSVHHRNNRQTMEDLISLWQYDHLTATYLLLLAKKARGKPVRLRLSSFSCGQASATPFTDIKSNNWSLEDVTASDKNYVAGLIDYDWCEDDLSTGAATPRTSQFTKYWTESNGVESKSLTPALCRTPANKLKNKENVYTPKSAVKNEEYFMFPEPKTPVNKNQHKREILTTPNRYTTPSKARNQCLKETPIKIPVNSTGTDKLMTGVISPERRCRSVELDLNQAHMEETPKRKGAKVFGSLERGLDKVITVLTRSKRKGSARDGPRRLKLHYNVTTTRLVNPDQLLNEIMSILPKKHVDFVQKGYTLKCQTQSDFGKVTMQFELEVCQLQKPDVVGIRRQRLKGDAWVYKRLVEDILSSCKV
Chain of MARK4 (human) (Q96L34 whole entry, looked up): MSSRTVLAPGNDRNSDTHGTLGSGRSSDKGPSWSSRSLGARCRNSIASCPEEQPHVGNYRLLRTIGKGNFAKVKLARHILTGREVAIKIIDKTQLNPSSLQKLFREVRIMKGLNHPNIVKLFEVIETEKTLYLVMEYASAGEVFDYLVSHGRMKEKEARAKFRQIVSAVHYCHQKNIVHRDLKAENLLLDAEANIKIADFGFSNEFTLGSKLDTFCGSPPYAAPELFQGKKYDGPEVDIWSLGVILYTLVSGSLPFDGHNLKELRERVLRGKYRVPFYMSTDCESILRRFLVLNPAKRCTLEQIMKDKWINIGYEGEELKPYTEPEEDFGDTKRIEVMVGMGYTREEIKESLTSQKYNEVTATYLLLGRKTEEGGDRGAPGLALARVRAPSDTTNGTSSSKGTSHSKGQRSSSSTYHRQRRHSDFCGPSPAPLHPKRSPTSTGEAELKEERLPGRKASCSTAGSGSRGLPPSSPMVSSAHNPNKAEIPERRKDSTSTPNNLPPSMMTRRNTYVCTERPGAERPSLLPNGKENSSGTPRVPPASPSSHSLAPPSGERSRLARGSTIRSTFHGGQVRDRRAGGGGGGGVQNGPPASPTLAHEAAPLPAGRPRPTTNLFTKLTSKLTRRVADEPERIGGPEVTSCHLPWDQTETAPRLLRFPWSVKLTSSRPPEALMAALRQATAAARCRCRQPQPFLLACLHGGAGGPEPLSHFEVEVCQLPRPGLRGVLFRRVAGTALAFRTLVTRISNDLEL

SMILES: CN1C(=O)[C@@H](Cc2c[nH]c3ccccc23)NC1=S
- residual activity ([1]; compound 1.0 µM): 111%
- residual activity ([1]; compound 10.0 µM): 110%
- residual activity ([2]; compound 1.0 µM): 83%
- residual activity ([2]; compound 10.0 µM): 75%
- residual activity ([3]; compound 1.0 µM): 93%
- residual activity ([3]; compound 10.0 µM): 99%
- residual activity ([4]; compound 1.0 µM): 107%
- residual activity ([4]; compound 10.0 µM): 92%
- residual activity ([5]; compound 1.0 µM): 99%
- residual activity ([5]; compound 10.0 µM): 110%
- residual activity ([6]; compound 1.0 µM): 70%
- residual activity ([6]; compound 10.0 µM): 83%
- residual activity ([7]; compound 1.0 µM): 81%
- residual activity ([7]; compound 10.0 µM): 88%
- residual activity ([8]; compound 1.0 µM): 98%
- residual activity ([8]; compound 10.0 µM): 96%
- residual activity ([9]; compound 1.0 µM): 86%
- residual activity ([9]; compound 10.0 µM): 120%
- residual activity ([10]; compound 1.0 µM): 98%
- residual activity ([10]; compound 10.0 µM): 110%
- residual activity ([11]; compound 1.0 µM): 91%
- residual activity ([11]; compound 10.0 µM): 91%
- residual activity ([12]; compound 1.0 µM): 109%
- residual activity ([12]; compound 10.0 µM): 103%
- residual activity ([13]; compound 1.0 µM): 110%
- residual activity ([13]; compound 10.0 µM): 101%
- residual activity ([14]; compound 1.0 µM): 84%
- residual activity ([14]; compound 10.0 µM): 125%
- residual activity ([15]; compound 1.0 µM): 85%
- residual activity ([15]; compound 10.0 µM): 88%
- residual activity ([16]; compound 1.0 µM): 102%
- residual activity ([16]; compound 10.0 µM): 94%
- residual activity ([17]; compound 1.0 µM): 88%
- residual activity ([17]; compound 10.0 µM): 89%
- residual activity ([18]; compound 1.0 µM): 100%
- residual activity ([18]; compound 10.0 µM): 96%
- residual activity ([19]; compound 1.0 µM): 98%
- residual activity ([19]; compound 10.0 µM): 106%
- residual activity ([20]; compound 1.0 µM): 104%
- residual activity ([20]; compound 10.0 µM): 106%
- residual activity ([21]; compound 1.0 µM): 94%
- residual activity ([21]; compound 10.0 µM): 101%
- residual activity ([22]; compound 1.0 µM): 93%
- residual activity ([22]; compound 10.0 µM): 100%
- residual activity ([23]; compound 1.0 µM): 91%
- residual activity ([23]; compound 10.0 µM): 90%
- residual activity ([24]; compound 1.0 µM): 96%
- residual activity ([24]; compound 10.0 µM): 102%
- residual activity ([25]; compound 1.0 µM): 83%
- residual activity ([25]; compound 10.0 µM): 81%
- residual activity ([26]; compound 1.0 µM): 101%
- residual activity ([26]; compound 10.0 µM): 102%
- residual activity ([27]; compound 1.0 µM): 110%
- residual activity ([27]; compound 10.0 µM): 89%
- residual activity ([28]; compound 1.0 µM): 91%
- residual activity ([28]; compound 10.0 µM): 88%
- residual activity ([29]; compound 1.0 µM): 94%
- residual activity ([29]; compound 10.0 µM): 92%
- residual activity ([30]; compound 1.0 µM): 79%
- residual activity ([30]; compound 10.0 µM): 68%
